Results published in patent US7960425B2, “Pyrazole compounds and thrombopoietin receptor activators” (Nissan Chemical Industries, Ltd., priority 2005, dated 2011).

System: not listed separately
Assay: Plasma concentration after oral administration to rats, determined by UT7/EPO-mpl proliferation bioassay
Type: in vivo
Settings: rat, male Sprague-Dawley rats, 10 mg/kg, between 0.5 and 2 hours after administration, read-out: Cmax (maximum concentration in blood)
Procedure: Each of the compounds of Synthetic Examples was suspended in a 99/1 liquid mixture of 0.5% methylcellulose/Polyoxyethylene Sorbitan Monooleate and orally administered to 7-week-old male Sprague-Dawley rats (Japan SLC, Inc.) at a dose of 10 mg/kg/10 mL through a stomach tube. Between 0.5 and 2 hours after the administration of the compounds, blood was periodically collected from the cervical vein with heparin as the anticoagulant. The blood was centrifuged at 3500 min^−1 for 10 minutes to obtain plasma. The plasma was added to the assay system used for assay of proliferation of a thrombopoietin-dependent cell line UT7/EPO-mpl in Assay Example 1 at final concentrations of from 0.1 to 3%, and the cell proliferation was assayed. The concentration of each compound in plasma was calculated from the cell proliferation in the presence of plasma by comparison with a standard curve of cell proliferation versus compound concentration prepared for each compound. The maximum concentration (Cmax) of each of the compounds of Synthetic Examples in blood between 0.5 and 2 hours after the oral administration to rats is shown in Table 3.

Point of comparison: `CCN(CC)C(=O)c1ccc(C(=O)NN=C(C)c2nn(C)c(-c3ccc(C(F)(F)F)cc3)c2O)s1.[K]` [Synthetic Example 1, 5-{1-[4-hydroxy-1-methyl-5-(4-trifluoromethylphenyl)-1H-pyrazol-3-yl]ethylidenehydrazinocarbonyl}thiophene-2-carboxylic Acid Diethylamide Potassium Salt], Cmax 760 ng/mL. Against it:
- CC(=NNC(=O)c1ccc(C(=O)NCc2ccccn2)s1)c1nn(C)c(-c2ccc(C(F)(F)F)cc2)c1O.[K] [Synthetic Example 2, 5-{1-[4-hydroxy-1-methyl-5-(4-trifluoromethylphenyl)-1H-pyrazol-3-yl]ethylidenehydrazinocarbonyl}thiophene-2-carboxylic Acid 2-picolylamide Potassium Salt] — 1.6-fold higher, 1200 ng/mL

System: Human bone marrow CD34+ cells
Assay: Megakaryocyte colony stimulating activity (megakaryocyte colony forming method)
Type: cell-based
Settings: 11 days, MegaCult-C, colonies of at least 8 stained megakaryocyte cells, average of at least 2 wells
Procedure: The action of the compounds of Synthetic Examples 2 to 6 of the present invention and Reference Synthetic Examples 6 to 7 on the proliferation, differentiation and maturation of megakaryocyte cells was measured by the megakaryocyte colony forming method using human bone marrow cells. Human bone marrow CD34^+ cells (Cambrex Bio Science Walkersville) were incubated on 2-well chamber slide for 11 days in a CO2 incubator (5% Co2, 37° C.) using MegaCult™-C (StemCell Technologies) containing 0.1% (v/v) of the compounds of Synthetic Examples dissolved in dimethyl sulfoxide. After dehydration and fixation, the cells were stained with an anti-glycoprotein IIb/IIIa antibody in accordance with the instruction by the manufacturer. The colonies consisting of at least 8 stained megakaryocyte cells in each well were counted under a microscope. The megakaryocyte colony counts in at least 2 wells were averaged.

Point of comparison: `C/C(=N\NC(=O)c1ccc(C(=O)O)s1)c1nn(C)c(-c2ccc(C(C)(C)C)cc2)c1O` [Reference Synthetic Ex. 6, reference compound], “Colony count at 1 μg/mL” value 1. Against it:
- COCCNC(=O)c1ccc(C(=O)NN=C(C)c2nn(C)c(-c3ccc(C(F)(F)F)cc3)c2O)s1 [Synthetic Example 5, 5-{1-[4-hydroxy-1-methyl-5-(4-trifluoromethylphenyl)-1H-pyrazol-3-yl]ethylidenehydrazinocarbonyl}thiophene-2-carboxylic Acid 2-methoxyethylamide] — higher, 335
- CC(=NNC(=O)c1ccc(C(=O)NCc2ccncc2)s1)c1nn(C)c(-c2ccc(C(F)(F)F)cc2)c1O [Synthetic Example 4, 5-{1-[4-hydroxy-1-methyl-5-(4-trifluoromethylphenyl)-1H-pyrazol-3-yl]ethylidenehydrazinocarbonyl}thiophene-2-carboxylic Acid 4-picolyamide] — higher, 111
- CC(=NNC(=O)c1ccc(C(=O)NC(C)C)s1)c1nn(C)c(-c2ccc(C(F)(F)F)cc2)c1O [Synthetic Example 3, 5-{1-[4-hydroxy-1-methyl-5-(4-trifluoromethylphenyl)-1H-pyrazol-3-yl]ethylidenehydrazinocarbonyl}thiophene-2-carboxylic Acid 2-propylamide] — higher, 141
- CC(=NNC(=O)c1ccc(C(=O)NCc2ccncc2)s1)c1nn(C)c(-c2ccc(Cl)c(Cl)c2)c1O [Synthetic Example 6, 5-{1-[5-(3,4-dichlorophenyl)-4-hydroxy-1-methyl-1H-pyrazol-3-yl]ethylidenehydrazinocarbonyl}thiophene-2-carboxylic Acid 4-picolylamide] — higher, 173
- CC(=NNC(=O)c1ccc(C(=O)NCc2ccccn2)s1)c1nn(C)c(-c2ccc(C(F)(F)F)cc2)c1O.[K] [Synthetic Example 2, 5-{1-[4-hydroxy-1-methyl-5-(4-trifluoromethylphenyl)-1H-pyrazol-3-yl]ethylidenehydrazinocarbonyl}thiophene-2-carboxylic Acid 2-picolylamide Potassium Salt] — higher, 121
